{
  "source": "patent US20140038920A1",
  "about": "“TFEB PHOSPHORYLATION INHIBITORS AND USES THEREOF” (FONDAZIONE TELETHON, priority 2011, published 2014)",
  "key": {"[1]": {"tested_on": "long-lived protein degradation in TFEB-overexpressing cells", "assay": "Degradation of long-lived proteins (FIG. 8)", "type": "cell-based", "details": "3-MA added during 4 h incubation", "method": "FIG. 8 TFEB increases autophagic proteolysis. Rate of long-lived protein degradation in TFEB-overexpressing, TFEB-depleted and control cells in either normal or starved condition. 3-methyl adenine (3MA) was added where indicated (Error bars represent standard deviations. p value (*)<0.05).\nSub-confluent cells were incubated with L-U^14C-serine for 20 h and chased for 1 h with cold media to degrade short-lived proteins. Subsequently cells were incubated with either normal media or starvation media (eventually in the presence of 3-MA) for 4 h. The rate of long-lived protein degradation was calculated from the ratio of soluble radioactivity in the media to that insoluble in the acid-precipitable cell pellet.\nThe applicants next measured the rate of delivery of autophagosome to lysosome using an RFP-GFP tandem tagged LC3 protein (9), which discriminates early autophagic organelles (GFP-positive/mRFP-positive) from acidified autolysosomes (GFP-negative/mRFP-positive), as the GFP signal (but not the mRFP) is quenched inside acidic compartments (9). […] Functional evidence of TFEB role in the regulation of autophagy came from the observation that degradation of long-lived proteins was enhanced by TFEB overexpression, and reduced by TFEB knock-down. This enhancement was abolished by the autophagy inhibitor 3-methyl adenine (3-MA) (10) (FIG. 8)."}, "[2]": {"tested_on": "TFEB", "assay": "Lysosomal stress: TFEB-3xFLAG nuclear/cytoplasmic fractionation immunoblot in HeLa and HEK-293T cells (FIG. 18)", "type": "cell-based", "details": "treated overnight; chloroquine 100 μM, Salicylihalamide A 2 μM", "from_the_text": "FIG. 18 Lysosomal stress induces TFEB nuclear translocation. […] Histone 3 (H3) and tubulin were used as nuclear and cytosolic markers, respectively. Blots are representative of triplicate experiments.\n(§1) The mouse anti-TFEB monoclonal antibody was purchased from My Biosource catalogue No. MBS 120432. To generate anti-pS142 specific antibodies, rabbits were immunized with the following peptide coupled to KLH: AGNSAPN{pSer}[…]. Following the fourth immunization, rabbits were sacrificed and the serum was collected. Non-phosphospecific antibodies were depleted from the serum by circulation through a column containing the nonphosphorylated antigene. The phosphospecific antibodies were subsequently purified using a column containing the phosphorylated peptide. Cells were lysed with M-PER buffer (Thermo) containing protease and phosphatase inhibitors (Sigma); nuclear/cytosolic fractions were isolated as above described. Proteins were separated by SDS-PAGE (Invitrogen; reduced NuPAGE 4-12% Bis-tris Gel, MES SDS buffer). If needed, the gel was stained using 20 ml Imperial Protein Stain (Thermo Fisher) at room temperature for 1 h and de-stained with water. […]\nTFEB subcellular localization was then analysed in HeLa and HEK-293T cells transiently transfected with a TFEB-3×FLAG plasmid and treated overnight with inhibitors of lysosomal function."}, "[3]": {"tested_on": "mTORC1", "assay": "mTORC1 activity by level of p-P70S6K in HeLa cells treated overnight (FIG. 19A)", "type": "cell-based", "method": "(§2) Immunoblotting of protein extracts isolated from HeLa cells treated overnight, as indicated. Membranes were probed with antibodies for p-T202/Y204-ERK1/2, ERK1/2, p-T389-S6K, and S6K to measure ERK and mTORC1 activities. […] FLAG immunoblotting of cytosolic and nuclear fractions isolated from TFEB-3×FLAG HeLa cells cultured in amino acid-free media and subsequently stimulated as indicated for at least 3 h. Correct subcellular fractionation was verified with H3 and tubulin antibodies. […] After 3 h at 37° C. in RPMI medium containing one of each of the compounds, the cells were washed, fixed, and stained with DAPI and photographed by using confocal automated microscopy (Opera high content system, Perkin Elmer). […] Scale bars represent 30 μm. […] The EC50 for each compound was calculated using Prism software (see Materials and Methods for details). […] Antibody used were p-T389-S6K, S6K and FLAG. […] HeLa cells stably expressing Flag-3×TFEB were infected with lentiviruses encoding a Short hairpin (Sh-) RNA targeting luciferase (control) or RagC and RagD mRNAs. […] TFEB localization was detected with a FLAG antibody, whereas tubulin and H3 were used as controls for the cytosolic and nuclear fraction, respectively; levels of S6K phosphorylation were used to test RagC and RagD knockdown efficiency."}, "[4]": {"tested_on": "TFEB", "assay": "TFEB nuclear localization in starved HeLa cells overexpressing TFEB, re-stimulated with media plus supplements or inhibitors (nuclear fractionation, Flag blot, immunofluorescence)", "type": "cell-based", "details": "for TFEB nuclear translocation compared to starved media alone: EBSS media supplemented with growth factor or cytokine (FIG. 2f)", "from_the_text": "(A) Scatter Plot graphs displaying the logarithmic value of the fold change differences in the relative expression levels of 51 autophagy-related genes in HeLa cells cultured in different conditions. X-axis=control group. Y-axis=treated group. Circles represent genes with increased (red) or decreased (green) fold change. Comparisons were as indicated. (B) Chromatin immunoprecipitation (ChIP) analysis. […] Values were normalized to the input and plotted as relative enrichment over a mock control. Experiments were performed in triplicate. (C) qPCR analysis of TFEB-target gene expression in normal, starved, and in TFEB-siRNA starved cells. GAPDH and HPRT represents housekeeping genes, while ATG10, ATG9A and ATG4D represent control genes (non-TFEB target genes). (D-F) HeLa cells stably overexpressing TFEB were left untreated or nutrient starved for 4 h. (D) Five fields containing 50-100 cells/each were analyzed for TFEB nuclear localization. […] (E) Cells were subjected to nuclear/cytosolic fractionation and blotted with Flag antibody. H3 and tubulin were used as nuclear and cytosolic markers, respectively. (F) Nuclear fractions were blotted with Flag and H3 (loading control) antibodies. (G) Western blot analysis of Flag, tubulin and H3 in nuclear extracts prepared from normal, starved and starved/stimulated with normal media cells for 1 h (normal) or pretreated with AP-2 (AKT inhibitor), Rapamycin (mTOR inhibitor) and U0126 (MEK inhibitor) 1 h prior to media stimulation. Total extracts were used to verify the efficiency of the inhibitors. […] Starvation was performed where indicated. (All error bars represent standard deviations. T-test (unpaired) p value (*)<0.05, (**)<0.01)\nCytosolic and nuclear fractions were subjected to Flag immunoblotting. […] Error bars represent standard deviations.\nCells were seeded at 50% of confluence in 6 well dishes and serum starved overnight (ON). Normal medium was added the following day either in presence of DMSO or kinase inhibitors. Subcellular fractionation was carried out as previously reported.\nTo identify the mechanism of starvation-induced activation of TFEB, the applicants analyzed its subcellular localization and post-translational modifications in starved cells."}, "[5]": {"tested_on": "TFEB", "assay": "High content TFEB-GFP nuclear translocation assay", "type": "cell-based", "details": "Homo sapiens, TFEB-GFP HeLa cells", "method": "as §2\nAfter 3 hours at 37° C. in RPMI medium cells were washed, fixed, and stained with DAPI. For the acquisition of the images, ten pictures per each well of the 384-well plate were taken by using confocal automated microscopy (Opera high content system, Perkin Elmer). A dedicated script was developed to perform the analysis of TFEB localization on the different images (Acapella software, Perkin Elmer). The script calculates the ratio value resulting from the average intensity of nuclear TFEB-GFP fluorescence divided by the average of the cytosolic intensity of TFEB-GFP fluorescence. The results were normalized using negative (RPMI medium) and positive (HBSS starvation) control samples in the same plate. The data are represented by the percentage of nuclear translocation at the different concentrations of each compound using Prism software (GraphPad software). The EC50 for each compound was calculated using non-linear regression fitting (Prism software).\nIn order to find additional small molecules able to induce the translocation of TFEB from the cytosol to the nucleus, the applicants developed a cell-based high content assay using stable HeLa cells overexpressing TFEB fused to the green fluorescent protein (TFEB-GFP). In the assay imaging of treated cells is acquired by an automated confocal microscope (OPERA system) and the analysis of those images with Acapella image software calculates the ratio of the average of fluorescence intensity of TFEB-GFP between the cytosol and nucleus of the cell (see Materials and methods for details). […] They tested ten concentrations for each inhibitor."}, "[6]": {"tested_on": "TFEB", "assay": "TFEB molecular weight shift and localization in TFEB-3xFLAG HeLa cells stimulated with amino-acid rich medium plus inhibitor (FIG. 19B)", "type": "cell-based", "details": "Torin 1 250 nM, Rapamycin 2.5 μM, U0126 50 μM", "method": "FIG. 19 mTORC1 regulates TFEB. (A) Lysosomal stress inhibits mTOR signaling. Immunoblotting of protein extracts isolated from HeLa cells treated overnight, as indicated. Membranes were probed with antibodies for p-T202/Y204-ERK1/2, ERK1/2, p-T389-S6K, and S6K to measure ERK and mTORC1 activities. […] FLAG immunoblotting of cytosolic and nuclear fractions isolated from TFEB-3×FLAG HeLa cells cultured in amino acid-free media and subsequently stimulated as indicated for at least 3 h. Correct subcellular fractionation was verified with H3 and tubulin antibodies. (C, D) Effects and dose—response curves of ERK and mTOR inhibitors on TFEB nuclear translocation. […] After 3 h at 37° C. in RPMI medium containing one of each of the compounds, the cells were washed, fixed, and stained with DAPI and photographed by using confocal automated microscopy (Opera high content system, Perkin Elmer). (C) Representative images of test concentrations for each compound. Scale bars represent 30 μm. […] The EC50 for each compound was calculated using Prism software (see Materials and Methods for details). (E) Amino acids induce TFEB molecular weight shift. Immunoblotting of protein extracts isolated from HEK-293T cells transfected either TFEB-3×FLAG or with an empty vector were nutrient starved and stimulated for 50 minutes with amino acids (a.a.). Antibody used were p-T389-S6K, S6K and FLAG. (F) Rag knockdown induces TFEB nuclear translocation. HeLa cells stably expressing Flag-3×TFEB were infected with lentiviruses encoding a Short hairpin (Sh-) RNA targeting luciferase (control) or RagC and RagD mRNAs. […] TFEB localization was detected with a FLAG antibody, whereas tubulin and H3 were used as controls for the cytosolic and nuclear fraction, respectively; levels of S6K phosphorylation were used to test RagC and RagD knockdown efficiency.\nas §1"}, "[7]": {"target": "mTOR (Mus musculus, UniProt Q9JLN9)", "details": "primary hepatocytes treated overnight", "from_the_text": "(§3) Subsequently, cells were lysed and protein extracts were immunoblotted with the indicated antibodies. […] Quantitative PCR (qPCR) of TFEB target genes in primary hepatocytes from control (flox/flox) and Tcfeb−/− (flox/flox; alb-Cre) mice. […] The expression levels are shown as % increased expression of the treated versus the corresponding untreated samples. Values represent means±s.d. of three independent hepatocyte preparations (three mice/genotype). Student's t-test (two tailed) *P-value ≦0.05."}, "[8]": {"tested_on": "TFEB target genes", "assay": "qPCR of TFEB target genes in primary hepatocytes (FIG. 21B, C)", "type": "cell-based, mouse", "details": "hepatocytes from TFEB conditional knockout mice (Tcfebflox/flox; alb-CRE)", "from_the_text": "as §3"}},
  "note": "Like-named read-outs stand apart in the source and are kept apart here.",
  "data": [
    {"compound": "Cn1cnc(N)c2ncnc1-2", "note": "[3-methyl adenine]", "values": [
      {"measurement": "enhancement of long-lived protein degradation by TFEB overexpression", "setting": "[1]", "result": "abolished"}
    ]},
    {"compound": "CC/C=C\\C=C/C(=O)N/C=C/C[C@H]1C[C@@H](O)[C@@H](C)C/C=C/Cc2cccc(O)c2C(=O)O1", "note": "[Salicylihalamide A]", "values": [
      {"measurement": "nuclear translocation of exogenously expressed TFEB", "setting": "[2]", "result": "induced nuclear translocation"},
      {"measurement": "mTORC1 activity as level of p-P70S6K", "setting": "[3]", "result": "inhibited mTORC1 activity"}
    ]},
    {"compound": "N#CC(=C(/N)Sc1ccccc1N)/C(C#N)=C(\\N)Sc1ccccc1N", "note": "[U0126]", "values": [
      {"measurement": "TFEB nuclear localization", "setting": "[4]; starved cells stimulated with normal medium supplemented with kinase inhibitor (FIG. 2g, 11b)", "result": "TFEB nuclear localization, at level similar to starvation"},
      {"measurement": "EC50", "setting": "[5]; 3 h, ten concentrations 2.54 nM to 50 μM (FIG. 19D), read-out: EC50, TFEB nuclear translocation", "result": 80.4, "unit": "µM"},
      {"measurement": "TFEB molecular weight shift induced by nutrients", "setting": "[6]", "result": "only a partial TFEB molecular weight shift"}
    ]},
    {"compound": "CCN(CC)CCCC(C)Nc1ccnc2cc(Cl)ccc12", "note": "(centres unmarked) [chloroquine]", "values": [
      {"measurement": "mTOR activity as level of p-S6K", "setting": "[7]", "result": "inhibited mTOR"},
      {"measurement": "transcriptional response of TFEB target genes versus control hepatocytes", "setting": "[8]", "result": "significantly blunted"},
      {"measurement": "nuclear translocation of exogenously expressed TFEB", "setting": "[2]", "result": "induced nuclear translocation"},
      {"measurement": "mTORC1 activity as level of p-P70S6K", "setting": "[3]", "result": "inhibited mTORC1 activity"}
    ]},
    {"compound": "N#CC(=C(/N)Sc1ccccc1N)/C(C#N)=C(\\N)Sc1ccccc1N", "note": "[drawing 34]", "values": [
      {"measurement": "EC50", "setting": "[5]; mobilization of cytosolic TFEB to the nucleus, 3 h at 37° C. in RPMI, ten concentrations 50 μM to 2.54 nM, 4 runs, read-out: Average EC50", "result": "> 15", "unit": "µM"}
    ]},
    {"compound": "EGF: growth factor supplemented to EBSS media (NSDSECPLSHDGYCLHDGVCMYIEALDKYACNCVVGYIGERCQYRDLKWWELR; UniProt P01133 971-1023, looked up)", "values": [
      {"measurement": "TFEB nuclear translocation compared to starved media alone", "setting": "[4]", "result": "significant inhibition"}
    ]},
    {"compound": "LIF: cytokine supplemented to EBSS media", "values": [
      {"measurement": "TFEB nuclear translocation compared to starved media alone", "setting": "[4]", "result": "Almost no effect"}
    ]},
    {"compound": "insulin", "values": [
      {"measurement": "TFEB nuclear translocation compared to starved media alone", "setting": "[4]", "result": "significant inhibition"}
    ]}
  ]
}
